# Measurements: patent US20070161634A1, “Compounds as CCR5 antagonists” (priority 2004, published 2007)
# Like-named read-outs stand apart in the source and are kept apart here.
# Columns and labels:
# [1] = target: CCR5 receptor (Homo sapiens, UniProt P51681); test: [35S]GTPγS binding assay; format: biochemical
# Source text: [^35S]GTPγS binding assay
# CCR5 receptor binds to agonists and changes its conformation which enables it to interact with and activate G protein, a heterotrimer which consists of subunits α and βγ. The capability of G protein α subunit binding to GTP depends on the effect between CCR5 and the agonists, therefore, the amount of α subunit bound GTP should reflect the agonists activity on the CCR5 receptor. In the GTPγS binding assay, [^35S]GTPγS is resistant to the GTPase activity of α subunit, and thus cannot be hydrolyzed when bound to G protein, making it accurate to reflect the receptor activation. Radiolabled [^35S]GTPγS can also serve as marker for detection in place of GTP. When CCR5 is not activated, α subunit is bound to GDP, but when CCR5 is activated, α subunit binds to [^35S]GTPγS, therefore, measurement of the number of the α subunit-bound ^35S-GTPγS can reflect the CCR5 activation level.
# CCR5 activation of G-protein was measured according to assays below:
# Permanent cell line expressing CHO of CCR5 (available at Euroscreen S.A., Belgium) was lysed by lysis buffer (5 mM Tris HCl, pH 7.5, 5 mM EDTA and 5 mM EGTA), and centrifuged at 15,000×g for 10 min. Cell membrane was resuspended with reaction buffer (5 mM Tris HCl, pH 7.5, 5 mM MgCl2, 1 mM EGTA, 100 mM NaCl), and protein concentrations were determined using Bioford assay (Bio-rad). [^35S]GTPγS binding assay was performed in the 100 μl reaction buffer system, which contains 10 ug membrane protein, 40 uM GDP and 0.5 nM [^35S]GTPγS (1200 Ci/mmol). After adding the study compounds, the system was vortexed and placed on ice for 5 min, and then CCR5 agonist was added (10 nM RANTES or 30 nM MIP1β). After vortexing, the reaction tubes were incubated at 30° C. for 1 h. After the reaction was complete, the reaction tubes were placed on ice and diluted with PBS to terminate the reaction. After suction through the GF/C filter membrane under vacuum, the membrane bound radioactivity was measured with a scintillation counter. Basal binding was measured without presence of agonist, and non-specific binding was measured in the presence of 10 mM nonisotopical GTPγS. The binding ratio of [^35S]GTPγS was calculated according to 100×[c.p.m.sample−c.p.m. non-specific]/[c.p.m.basal−c.p.m. non-specific]. IC50 was the compound concentration at which half of the [^35S]GTPγS binding induced by 10 nM RANTES or 30 nM MIP1β was inhibited, and the value was obtained from the concentration-inhibition curve (6-7 points for concentrations of each compound).
# [2] = MTT cytotoxicity assay; format: cell-based; conditions: human, peripheral blood mononuclear cells (PBMC) and Jurkat cells; MTT
# Experimental: (§1) C. MTT Cytotoxicity Assay
# (§2) Cells were prepared as single cell suspension, and cell densities were adjusted according to the cell size and cell features. Cells were inoculated with 100 ul culture media into 96 well plates, and incubated in 37° C. incubator (5% CO2, saturated humidity). The seeding densities were as follows: peripheral blood monouclear cells (PBMC) 10^5 cells /well, Jurket 4×10^4 cells/well. 24 h after cell inoculation, the compounds to be tested were added and incubated with cells. 48 h after inoculation, 10 μl MTT (Sigma, USA, 5 mg/ml, diluted with PBS and stored at −20° C.) was added to each well, and incubated for another 4 h in 37° C. incubator. Then add 50 μl formazane solvent (10%SDS-5%isopropanol−0.01M HCl) and incubate overnight. Determine OD570/OD630 nm at spectrophotometer, and calculate CC50 according to the inhibition curve.
# [3] = system: peripheral blood monouclear cells (PBMC), Jurket; test: MTT cytotoxicity assay; format: cell-based; conditions: at 10,000 nM
# Experimental: as §1, §2
# [4] = target: T1, CCR1 (Homo sapiens, UniProt P32246); test: effects on the activation of CCR1 receptor; conditions: at the concentration of 10,000 nM
# T1 sequence (P32246 1-355): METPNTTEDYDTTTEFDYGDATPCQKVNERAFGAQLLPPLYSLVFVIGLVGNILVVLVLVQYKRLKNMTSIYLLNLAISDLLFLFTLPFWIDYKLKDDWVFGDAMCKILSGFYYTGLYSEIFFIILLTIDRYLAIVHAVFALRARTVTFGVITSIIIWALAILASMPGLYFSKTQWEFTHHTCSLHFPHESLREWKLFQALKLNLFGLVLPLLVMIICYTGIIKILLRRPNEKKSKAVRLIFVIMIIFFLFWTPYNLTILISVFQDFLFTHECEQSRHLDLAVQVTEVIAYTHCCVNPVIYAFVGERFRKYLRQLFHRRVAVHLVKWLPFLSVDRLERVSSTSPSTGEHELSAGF
# [5] = target: CXCR4 (Homo sapiens, UniProt P61073); test: effects on the activation of CXCR4 receptor; conditions: at the concentration of 10,000 nM
# Chain of CXCR4 (P61073 whole entry, species assumed): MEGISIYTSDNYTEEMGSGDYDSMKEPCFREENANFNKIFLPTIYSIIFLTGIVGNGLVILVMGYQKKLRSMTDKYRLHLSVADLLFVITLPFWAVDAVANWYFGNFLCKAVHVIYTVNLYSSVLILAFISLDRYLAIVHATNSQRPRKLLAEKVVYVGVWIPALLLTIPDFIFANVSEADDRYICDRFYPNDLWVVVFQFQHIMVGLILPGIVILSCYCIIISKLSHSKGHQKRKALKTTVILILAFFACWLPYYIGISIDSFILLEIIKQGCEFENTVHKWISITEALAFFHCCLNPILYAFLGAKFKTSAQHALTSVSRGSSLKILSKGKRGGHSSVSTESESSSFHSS
# [6] = system: HEK 293 cells expressing human CCR5 receptors (293CCR5); test: Chemotaxis assay; format: cell-based; conditions: chemotaxis caused by 10 nM RANTES, read-out: IC50 on cell chemotaxis
# Experimental: The procedures were as follows:
# The assay is performed with a 48 well plate (AP48, Neuroprobe Inc., USA) and 8 uM filter membrane (25×80 mm). The filter membrane was pre-immersed in rat tail collagen for at least 2 h. The filter membrane was taken out and dried on a super-clean bench, then the filter membrane was immersed in 0.1% BSA-MEM. HEK 293 cells expressing human CCR5 receptors (293CCR5) (available at Euroscreen S.A., Belgium) were digested with D.T. for 1 min, and pelleted by centrifugation at 200 g. Resuspend the cells in 0.1% BSA-MEM, count and dilute the cell suspension to 3×10^6 cells/ml. Fill each well with 26.5 μl tll of a chemokine dilution or 1% BSA MEM, place the filter membrane and cover a lid on the well, add 50 μl of the cells suspension to each well. When testing the compound antagonism, the compounds to be tested were added to the cell suspension, and pre-incubated at 37° C. for 20 min. Then place the plate in 37° C. incubator, and incubate for 6 h. Take out of the filter membrane and remove the cells in the well, fix the filter membrane in 4% polyformaldehyde solution at 4° C. overnight. The filter membrane was taken out the next day and stained with crystal violet for at least 2 h, then wash with water and allow it to dry. Scan the filter membrane, and calculate the shades with Scion Image. […]
# [7] = water solubility; format: physicochemical; conditions: mesylate compared with II-a-a
# [8] = Table I, [35S]GTPγS binding, read-out: IC50
# [9] = [35S]GTPγS binding initiated by 10 nM RANTES, read-out: IC50(nM) ± S.E.
# Chain of CCR5 receptor (P51681 whole entry): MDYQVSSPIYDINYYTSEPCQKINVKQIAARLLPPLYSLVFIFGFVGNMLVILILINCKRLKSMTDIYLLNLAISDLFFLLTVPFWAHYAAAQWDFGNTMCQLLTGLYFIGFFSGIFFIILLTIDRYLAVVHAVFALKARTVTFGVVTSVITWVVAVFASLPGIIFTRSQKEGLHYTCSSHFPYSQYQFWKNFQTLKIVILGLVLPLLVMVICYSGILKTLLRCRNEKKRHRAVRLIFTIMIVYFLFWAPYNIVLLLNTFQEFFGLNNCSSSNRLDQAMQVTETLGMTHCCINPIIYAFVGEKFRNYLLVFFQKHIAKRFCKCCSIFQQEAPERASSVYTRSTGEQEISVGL
Compound,"IC50 [1, 8] [nM]","IC50 [1, 9] [nM]",activation or antagonism of CCR1 receptor [4],activation or antagonism of CXCR4 receptor [5],water solubility increase [7],"IC50 ([1]; b360, read-out: IC50) [nM]",CC50 at 24 h [2] [nM],cytotoxicity on cells [3],IC50 [6] [nM]
"C=CCN(C(=O)OCc1ccc([N+](=O)[O-])cc1)C1CCN(CC2CN(C(=O)c3cccc4ccccc34)CC2(O)c2ccccc2)CC1 (stereo not drawn) [III-a-d, 4-nitrobenzyl 1-((1-(1-naphthoyl)-4-hydroxy-4-phenylpyrrolidin-3-yl)methyl)piperidin-4-yl(allyl)carbamate]",26.8 ± 2,26.8 ± 2,do not activate or antagonize,do not activate or antagonize,,,~30000,no significant cytotoxicity,
CCN(C(=O)OCc1ccccc1)C1CCN(CC2CN(Cc3ccccc3)CC2(O)c2ccccc2)CC1 (stereo not drawn) [mesylate of II-a-a],,,,,about 10 fold,342 ± 72.5,,,

# Continued by falling IC50 [1, 8], values first:
"IC50 [1, 8] [nM]","IC50 [1, 9] [nM]",activation or antagonism of CCR1 receptor [4],activation or antagonism of CXCR4 receptor [5],water solubility increase [7],"IC50 ([1]; b360, read-out: IC50) [nM]",Compound,CC50 at 24 h [2] [nM],cytotoxicity on cells [3],IC50 [6] [nM]
24.9 ± 8.8,24.9 ± 8.8,do not activate or antagonize,do not activate or antagonize,,,"C=CCN(C(=O)OCc1ccc([N+](=O)[O-])cc1)C1CCN(CC2CN(C(=O)c3ccccc3I)CC2(O)c2ccccc2)CC1 (stereo not drawn) [III-a-c, 4-nitrobenzyl allyl(1-((4-hydroxy-1-(2-iodobenzoyl)-4-phenylpyrrolidin-3-yl)methyl)piperidin-4-yl)carbamate]",~30000,no significant cytotoxicity,
7.3,7.3 ± 0.6,do not activate or antagonize,do not activate or antagonize,,,"C=CCN(C(=O)OCc1ccc([N+](=O)[O-])cc1)C1CCN(CC2CN(C(=O)C3CCCCC3)CC2(O)c2ccccc2)CC1 (stereo not drawn) [III-a-f, 4-nitrobenzyl allyl(1-((1-(cyclohexanecarbonyl)-4-hydroxy-4-phenylpyrrolidin-3-yl)methyl)piperidin-4-yl)carbamate]",~30000,no significant cytotoxicity,
5.3 ± 0.6,5.3 ± 0.6,do not activate or antagonize,do not activate or antagonize,,,"C=CCN(C(=O)OCc1ccc([N+](=O)[O-])cc1)C1CCN(CC2CN(C(=O)C3CCCC3)CC2(O)c2ccccc2)CC1 (stereo not drawn) [III-a-e, 4-nitrobenzyl allyl(1-((1-(cyclopentanecarbonyl)-4-hydroxy-4-phenylpyrrolidin-3-yl)methyl)piperidin-4-yl)carbamate]",~30000,no significant cytotoxicity,~30
